From US20240252472A1, “COMBINATIONS FOR TREATING CANCER” (Purdue Pharma L.P., priority 2023, published 2024)

Legend:
Type in all cases: in vivo
MM1S-luc derived tumors = test: Disseminated human myeloma model, CB17-SCID mice; conditions: EDO-S101 15 mg/kg i.v. weekly, daratumumab 8 mg/kg i.p. weekly, 4 weeks; vehicle 33 days
Method: MM1S-luc cells (3×10^6) were injected intravenously (i.v.) into CB17-SCID mice which were determined to have normal NK cells, monocytes and granulocytes (The Jackson Laboratory, Bar Harbor, ME, USA). Tumor development was monitored by non-invasive bioluminescence imaging (BLI) with a Xenogen IVIS 50 system (Caliper Life Sciences, Hopkinton, MA, USA). Mice were randomized into four groups (n=5/group): one receiving vehicle (i.v., weekly), another group receiving EDO-S101 (15 mg/kg i.v., weekly on Tuesdays), another group receiving daratumumab (8 mg/kg i.p., weekly on Wednesdays) and the last group receiving the double combination of EDO-S101+daratumumab. Both drugs were administered over a period of 4 weeks.
CB17-SCID mice bearing MM1S-luc derived tumors were treated with EDO-S101, daratumumab, a combination thereof, or vehicle, in accordance with the methods outlined above. MM1S-Luc cells (3×10^6) were intravenously injected into CB17-SCID mice. After 2 weeks, mice were randomized into four groups: one receiving vehicle (i.v., weekly), another group receiving EDO-S101 (15 mg/kg i.v., weekly on Tuesdays), another group receiving daratumumab (8 mg/kg i.p., weekly on Wednesdays) and the last group received the double combination of EDO-S101+daratumumab. Survival of mice analyzed with a Kaplan-Meier curve. Both drugs were administered over a period of 4 weeks.

[1] = test system: subcutaneous plasmacytoma derived from MM.1S cells; test: First subcutaneous plasmacytoma model, NSG mice with human NK cells; conditions: EDO-S101 30 mg/kg i.v. weekly, daratumumab 8 mg/kg i.p. weekly, 4 weeks; vehicle 30 days
Method: For the first subcutaneous human plasmacytoma model, NSG mice (Charles River Laboratories, Wilmington, MA, USA) were subcutaneously inoculated into the right flank with 3×10^6 MM1S in 100 μL RPMI 1640 medium and 100 μL of Matrigel (BD Biosciences). When tumors developed, mice were injected with human NK cells isolated from buffy coats from healthy donors and randomized (4 mice/group) to receive: EDO-S101 (30 mg/kg, iv weekly), daratumumab (8 mg/kg, ip weekly), a combination thereof, or vehicle (PBS vehicle solution with 15% HPBCD, 1.5% acetic acid, and 1.25% NaHCO3). Both, NK cells and the treatments were administered over four consecutive weeks. Caliper measurements of the tumor diameters were performed three times a week, and the tumor volume was estimated as the volume of a 3D ellipse using the following formula: V=4/3π×(a/2)×(b/2)^2, where “a” and “b” correspond to the longest and shortest diameter, respectively. Animals were killed when their tumors reached 2 cm. Differences in tumor volumes between control and treated groups were evaluated using one-way analysis of variance and Dunn's post-hoc tests. […]

[2] = test system: subcutaneous plasmacytoma derived from MM1.S cells; test: Second subcutaneous plasmacytoma model, CB17-SCID mice; conditions: EDO-S101 30 mg/kg i.v. weekly, daratumumab 8 mg/kg i.p. weekly, 4 weeks; vehicle 34 days
Text: For the second subcutaneous human plasmacytoma model, CB17-SCID mice (The Jackson Laboratory) were used. CB17-SCID mice were randomised into groups (n=5). The design of the experiment (treatment doses and time schedule) was identical to the experiment described above with NSG mice except for the inoculation of NK cells, since CB17-SCID mice have their own functional NK cells.
For the second subcutaneous human plasmacytoma model, CB17-SCID mice (20 female mice, 5-6 weeks old; from The Jackson Laboratory) were used. The design of the experiment (treatment doses and time schedule) was identical to the one performed with NSG mice except for the inoculation of human NK cells, since CB17-SCID mice hold their own functional NK cells (Dorshkind et al., J Immunol 134:3798-3801, 1985).
In the second xenograft plasmacytoma model, CB17-SCID mice bearing a subcutaneous plasmacytoma derived from MM1.S cells were randomized to receive vehicle, daratumumab, EDO-S101 or the double combination. Mice were treated with EDO-S101 on Mondays and daratumumab was administered on Tuesdays. […] Furthermore, statistical differences in survival were also found between the combination vs vehicle (58 days±2.739 vs 34 days±2.191 days, respectively; p=0.003).

“daratumumab: anti-CD38 monoclonal antibody clinically approved for multiple myeloma [reference compound]” showed a median survival (MM1S-luc derived tumors) of 59 days, a median survival [1] of 34 days and an overall median survival [2] of 41 days.
